The results in this text go back to BindingDB's records for PubMed 7509389 (Fujisawa Pharmaceutical, 1994).

The assay concerns the target T1, Gastrin/cholecystokinin type B receptor (Rattus norvegicus, UniProt P30553).
T1 sequence (P30553 whole entry): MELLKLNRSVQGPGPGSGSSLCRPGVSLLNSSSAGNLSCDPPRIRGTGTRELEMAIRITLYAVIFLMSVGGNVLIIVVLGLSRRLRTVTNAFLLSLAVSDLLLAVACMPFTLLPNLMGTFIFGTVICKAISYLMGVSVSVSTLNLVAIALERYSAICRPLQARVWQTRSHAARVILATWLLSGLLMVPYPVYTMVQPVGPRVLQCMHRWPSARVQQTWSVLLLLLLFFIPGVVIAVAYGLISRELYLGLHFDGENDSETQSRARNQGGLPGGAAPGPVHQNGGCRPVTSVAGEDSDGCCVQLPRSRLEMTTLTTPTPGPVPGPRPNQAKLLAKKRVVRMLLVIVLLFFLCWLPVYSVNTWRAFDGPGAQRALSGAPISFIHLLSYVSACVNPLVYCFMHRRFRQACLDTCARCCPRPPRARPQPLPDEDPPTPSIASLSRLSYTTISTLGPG

pKi: −log10 of the molar value.

As usually defined, the pKi is −log10 of the Ki, conventionally taken in molar units. Read a low pKi as a large Ki. `CCCCCN(CCCOC)C(=O)C(CCC(=O)O)NC(=O)c1ccc(Cl)c(Cl)c1` (stereo unspecified) [4-(3,4-dichlorobenzamido)-5-((3-methoxypropyl)(pentyl)amino)-5-oxopentanoic acid] showed a pKi of 6.48.
